Reference: patent US20260242843A1, “ASSAY SYSTEM FOR […] ANTIVIRAL AGENT USING INHIBITION OF VIRUS-DERIVED PROTEASE AS INDICATOR” (TOYAMA PREFECTURAL UNIVERSITY, priority 2023, published 2026)

Key:
[1] = tested on: IAPV protease; assay: Measurement of IAPV protease activity using purified enzyme (fluorescent peptide substrate); assay type: biochemical, Israeli acute paralysis virus (IAPV); conditions: inhibitors at final concentration of 1 mM, pre-incubated at 37° C. for 1 hour; fluorescence in absence of inhibitors = 100%
Experimental: RNA was extracted from the midgut of virus-infected honey bees using ISOGEN II (Nippon Gene Co., Ltd.), and the extracted RNA was reverse-transcripted using PrimeScript RT reagent Kit (Takara) to obtain midgut-derived cDNA. Subsequently, the midgut-derived cDNA was subjected to PCR reaction (30 cycles of 98° C. for 30 seconds, 60° C. for 30 seconds, and 68° C. for 2 minutes) using KOD FX Neo (TOYOBO Co., Ltd.) with IAPV Protease Primer-F1 (SEQ ID NO: 59) and IAPV Protease Primer-R (SEQ ID NO: 60). As a result, a cDNA fragment of IAPV protease was obtained, consisting of the base sequence of SEQ ID NO: 57 encoding the amino acid sequence of SEQ ID NO: 58. The cDNA fragment of the IAPV protease was subjected to restriction enzyme treatment with BamHI and HindIII. The expression vector pET21a (Merck) was also subjected to restriction enzyme treatment with BamHI and HindIII. The restriction enzyme-treated cDNA fragment of the IAPV protease and the restriction enzyme-treated pET21a DNA fragment were subjected to a ligation reaction at 16° C. for 1 hour using Ligation High Ver. 2 (TOYOBO Co., Ltd.) to join the vector and the cDNA fragment, and the ligation product was used to transform E. coli. Colony PCR was performed, and an expression vector containing the cDNA fragment of the IAPV protease was obtained. E. coli Rosseta-gami B (Merck) was transformed with the expression vector of the IAPV protease. A preculture was prepared in 50 ml of LB medium containing ampicillin, followed by subculturing in 500 ml of LB medium containing ampicillin. Then, the culture was grown until the absorbance at 600 nm reached 0.5, at which point isopropyl β-D-thiogalactopyranoside (IPTG) was added to a final concentration of 1 mM. The culture was then incubated at 15° C. for 24 hours. The culture was centrifuged (8000 rpm, 10 minutes, 4° C.) to collect E. coli cells. The collected E. coli cells were dissolved in 10 ml of a sonication buffer (50 mM Tris-HCl, pH 8.0; 50 mM NaCl; 1 mM EDTA; 1 mM DTT), and disrupted by ultrasonic disruption (sonication). The disruption solution was centrifuged (12000 rpm, 10 minutes, 4° C.) to obtain a supernatant of this bacterial cell disruption solution. The IAPV protease was then purified from the resulting supernatant to yield a purified protein solution. Purification was carried out by cation exchange chromatography using HiPrep SP XL 16/10 (Cytiva) with a 20 mM Tris-HCl (pH 7.5) buffer and a 20 mM Tris-HCl (pH 7.5) buffer containing 1 M NaCl, and by gel filtration chromatography using HiLoad 16/600 Superdex 200 (Cytiva) with a 50 mM phosphate buffer (pH 7.0) containing 0.15 M NaCl.
As a substrate for the measurement of IAPV protease activity, either Dnp-PNDIV DVTMQK(Nma)-NH2 or Nma-[…] (Dnp)-NH2, in which a peptide was linked to a fluorescent substrate, was synthesized and used. When the activity measurement substrate is cleaved by the protease, it emits fluorescence. The activity measurement substrate was prepared at a concentration of 20 μM in an assay buffer (50 mM citric acid buffer, pH 6.0; 150 mM NaCl; 1 mM EDTA; 1 mM DTT). The purified protein solution of the IAPV protease obtained in Example 10 was used as the enzyme solution. 50 μl of the assay buffer containing the activity measurement substrate was mixed with 50 μl of the enzyme solution, and the mixture was reacted at 37° C. for 30 minutes in a 96-well black plate, in the presence or absence of various inhibitors listed in Table 4. Fluorescence intensity was then measured using a TECAN fluorescence plate reader (Tecan Japan Co., Ltd.) at an excitation wavelength of 340 nm and a fluorescence emission wavelength of 440 nm. The various inhibitors were prepared at a final concentration of 1 mM and pre-incubated at 37° C. for 1 hour prior to the enzymatic reaction.

[2] = tested on: virus-infected honey bees; assay: Suppression of individual honey bee mortality by agent administration (aseptic in vivo agent evaluation rearing method); conditions: for viability compared to the control group: 100 μM in 50% sucrose solution, virus-infected honey bee population No. 2, FIG. 15
Experimental: A new aseptic in vivo agent evaluation rearing method for honey bees was established. Incubators and rearing boxes were sterilized with 70% ethanol after cleaning. Each hive box was populated with 30 to 35 honey bees. The honey bees were fed with a 50% sucrose solution (aseptically dissolved in sterile water) and a 50% sucrose solution containing pollen dissolved therein. The rearing temperature was maintained at 30° C. The 50% sucrose solutions were replaced daily, and the number of individual honey bees was measured at each replacement. Agents were administered dissolved in the 50% sucrose solutions. At the time when the viability had decreased to 50% or less of the initial level, total RNA was collected from the surviving individuals, and histochemical analyses were performed on the midgut and other tissues. Pharmacological analyses were conducted using the collected RNA, tissues, and blood.
E-64 ([(2S,3S)-3-carboxyoxirane-2-carbonyl]-L-leucine (4-guanidinobutyl)amide hemihydrate, manufactured by PEPTIDE INSTITUTE, INC.) was dissolved in a 50% sucrose solution at concentrations of 200 μM, 100 μM, and 50 μM. The resulting solutions were administered to honey bees in the honey bee populations Nos. 2 and 5, in which viral infection had been observed. Only 50% sucrose was administered to a control group (None). The E-64-containing solutions were replaced daily, and changes in the number of individual honey bees were measured at each replacement. FIGS. 9 and 10 show the results. Rearing was conducted using the aseptic in vivo agent evaluation rearing method, which has been described above.
E-64c (manufactured by PEPTIDE INSTITUTE, INC.) or E-64d (manufactured by PEPTIDE INSTITUTE, INC.) was dissolved in a 50% sucrose solution at a concentration of 100 μM. The resulting solutions were administered to honey bees in the honey bee population No. 2, in which viral infection had been observed. […] The solution containing E-64c or E-64d was replaced daily, and changes in the number of individual honey bees were measured at each replacement. […]

[3] = tested on: fusion protein of Maltose Binding Protein (MBP)-IAPV protease; assay: IAPV protease activity measurement using crude enzyme solution of expressed MBP-IAPV protease fusion protein; assay type: biochemical, Israeli acute paralysis virus (IAPV); conditions: in the presence of E-64, absence of E-64 = 100%
Experimental: Midgut-derived cDNA was obtained from virus-infected honey bees in the same manner as in Example 10 and then subjected to PCR reaction (30 cycles of 98° C. for 30 seconds, 60° C. for 30 seconds, and 68° C. for 2 minutes) using KOD FX Neo (TOYOBO Co., Ltd.) with IAPV Protease Primer-F2 (SEQ ID NO: 61) and IAPV Protease Primer-R (SEQ ID NO: 60). As a result, a cDNA fragment of IAPV protease was obtained, consisting of the base sequence of SEQ ID NO: 57 encoding the amino acid sequence of SEQ ID NO: 58. The cDNA fragment of the IAPV protease was subjected to restriction enzyme treatment with BamHI and HindIII. […] Then, the culture was grown until the absorbance at 600 nm reached 0.5, at which point IPTG was added to a final concentration of 1 mM. […]
Subsequently, using a crude enzyme solution of the expressed fusion protein of IAPV protease as the enzyme solution, the IAPV protease activity was measured using the same method as in Example 11, in the presence or absence of E-64.
The fluorescence intensity measured in the absence of E-64 was reduced by the addition of E-64. When the fluorescence intensity measured in the absence of E-64 is defined as 100% relative activity, the relative activity of IAPV protease calculated from the fluorescence intensity measured in the presence of E-64 was 9% (FIG. 14). […]

[4] = tested on: virus-infected honey bees; assay: Recovery from intestinal tract damage in honey bees (BPB administration test); assay type: in vivo; conditions: E-64 100 μM in 50% sucrose, reared 10 days; BPB 10 mg/ml for 24 hours; FIG. 13
Experimental: Virus-infected and uninfected honey bees were reared for 10 days while receiving 50% sucrose. During the rearing period, Bromophenol Blue (BPB) (FUJIFILM Wako Pure Chemical Corporation) was dissolved in a 50% sucrose solution at a concentration of 10 mg/ml and administered to the virus-infected and uninfected honey bees for 24 hours. When the viability of the virus-infected group had decreased to approximately 50%, relative to the number of individual honey bees before rearing set to 100%, BPB was administered to each group of honey bees. After BPB administration, blood was collected from honey bees (≥30 individuals), and the concentration of BPB in the blood was measured by absorbance at 500 nm using a microvolume spectrophotometer, NanoDrop One (ThermoFisher Scientific).
Virus-infected honey bees were divided into a control group (None) to which 50% sucrose was administered, and an administered group (E-64) to which a solution of E-64 (PEPTIDE INSTITUTE, INC.) dissolved at 100 μM in 50% sucrose was administered. The honey bees were reared for 10 days. […] After BPB administration, blood was collected from honey bees (≥30 individuals), and the concentration of BPB in the blood was measured by absorbance at 500 nm using a microvolume spectrophotometer, NanoDrop One (ThermoFisher Scientific).

Molecule | Relative Activity (%) of IAPV protease [1] [%] | also measured
CCCNC(=O)[C@H]1O[C@@H]1C(=O)N[C@H](C(=O)N1CCC[C@H]1C(=O)OC)[C@@H](C)CC [CA074 methyl ester, [(2S,3S)-3-propylcarbamoyloxirane-2-carbonyl]-L-isoleucyl-L-proline methyl ester] | 32 | –
CCCNC(=O)[C@H]1O[C@@H]1C(=O)N[C@H](C(=O)N1CCC[C@H]1C(=O)O)[C@@H](C)CC [CA074, [(2S,3S)-3-propylcarbamoyloxirane-2-carbonyl]-L-isoleucyl-L-proline] | 4 | –
CC(C)CCNC(=O)[C@H](CC(C)C)NC(=O)[C@H]1O[C@@H]1C(=O)O [E-64c, [(2S,3S)-3-carboxyoxirane-2-carbonyl]-L-leucine (3-methylbutyl)amide] | 22 | viability compared to the control group [2]: higher viability compared to the control group
CCOC(=O)[C@H]1O[C@@H]1C(=O)N[C@@H](CC(C)C)C(=O)NCCC(C)C [E-64d, [(2S,3S)-3-ethoxycarbonyloxirane-2-carbonyl]-L-leucine (3-methylbutyl)amide] | 23 | viability compared to the control group [2]: higher viability compared to the control group
CCOC(=O)[C@H]1O[C@@H]1C(=O)N[C@@H](CC(C)C)C(=O)NCCc1ccc(O)cc1 [JPM-OEt] | 17 | –
O=C(O)c1cc2ccccc2s1 [TNCA, benzo[b]thiophene-2-carboxylic acid] | 71 | –
O=C(NC1CC1)C(=O)C(Cc1ccccc1)NC(=O)[C@H]1CCC(=O)N1Cc1ccccc1 (some centres unmarked) [alicapistat] | 22 | –
Cc1nc(-c2ccccc2F)c(C(=O)NC(Cc2ccccc2)C(=O)C(N)=O)o1 (centres unmarked) [dazcapistat] | 29 | –
[(2S,3S)-3-carboxyoxirane-2-carbonyl]-L-leucine (4-guanidinobutyl)amide hemihydrate [E-64] | 5 | individual honey bee mortality (viability) ([2]; E-64 at 200 μM, 100 μM, 50 μM in 50% sucrose solution, virus-infected honey bee populations Nos. 2 and 5, FIGS. 9 and 10): suppressed individual honey bee mortality; relative activity of IAPV protease [3]: 9%; concentration of BPB in the blood (absorbance at 500 nm) [4]: reduced the concentration of BPB in the blood
